Laboratory results from article PMC8805257, “Molecular and functional characterization of a conserved odorant receptor from Aedes albopictus” (Parasites & Vectors, 2022).

Experiments:
Format in all cases: cell-based
[1] = target: T1, AalbOr11 (odorant receptor 11) (Aedes albopictus, UniProt A0ABM1ZVX3); experiment: two-electrode voltage clamp in Xenopus oocytes co-expressing AalbOr11/AalbOrco, concentration-response
T1 construct: with AalbOrco
T1 sequence (A0ABM1ZVX3 1-420): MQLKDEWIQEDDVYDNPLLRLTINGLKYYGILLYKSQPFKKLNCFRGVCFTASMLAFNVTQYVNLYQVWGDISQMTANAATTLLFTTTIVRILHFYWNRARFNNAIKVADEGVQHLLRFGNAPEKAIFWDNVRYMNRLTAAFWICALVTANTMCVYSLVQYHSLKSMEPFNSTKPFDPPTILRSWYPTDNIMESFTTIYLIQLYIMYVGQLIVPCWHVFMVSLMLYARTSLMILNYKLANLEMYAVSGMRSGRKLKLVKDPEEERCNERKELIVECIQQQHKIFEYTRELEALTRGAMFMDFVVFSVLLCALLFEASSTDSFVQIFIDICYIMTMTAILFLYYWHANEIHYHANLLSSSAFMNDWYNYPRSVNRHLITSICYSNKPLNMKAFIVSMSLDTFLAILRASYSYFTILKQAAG
T1 sequence (W8NXX6 1-479 partner): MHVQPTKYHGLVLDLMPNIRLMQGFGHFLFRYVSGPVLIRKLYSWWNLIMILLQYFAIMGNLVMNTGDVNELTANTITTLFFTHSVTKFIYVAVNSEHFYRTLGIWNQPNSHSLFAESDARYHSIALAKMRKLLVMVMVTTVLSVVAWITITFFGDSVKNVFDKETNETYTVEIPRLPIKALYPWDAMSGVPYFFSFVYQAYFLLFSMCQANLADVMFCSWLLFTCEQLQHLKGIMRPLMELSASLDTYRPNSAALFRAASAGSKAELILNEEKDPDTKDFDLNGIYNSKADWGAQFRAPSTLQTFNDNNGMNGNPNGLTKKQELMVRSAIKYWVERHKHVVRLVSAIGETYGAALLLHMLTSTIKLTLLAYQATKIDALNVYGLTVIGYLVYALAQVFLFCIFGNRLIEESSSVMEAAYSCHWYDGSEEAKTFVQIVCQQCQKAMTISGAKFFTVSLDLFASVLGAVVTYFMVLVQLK

[2] = target: T1, AalbOr11 (odorant receptor 11); experiment: two-electrode voltage clamp in Xenopus oocytes; current […] nA at […]
[3] = target: T1, AalbOr11 (odorant receptor 11); experiment: two-electrode voltage clamp in Xenopus oocytes co-expressing AalbOr11/AalbOrco, concentration-response; remark: listed apart in the source
[4] = target: T1, AalbOr11 (odorant receptor 11); experiment: two-electrode voltage clamp in Xenopus oocytes, screen at […]

SMILES	two-electrode voltage clamp in Xenopus oocytes; current >300 nA at 10^-4 M [2]	also measured
CC(=O)c1cccs1 [2-acetylthiophene]	–	two-electrode voltage clamp in Xenopus oocytes co-expressing AalbOr11/AalbOrco, [1]: indole was replaced with 2-acetylthiophene to conduct concentration gradient assay
CCc1ccccc1O [2-ethylphenol]	five aromatics 3-methylindole, 2-ethyltoluene, indole, acetophenone, and 2-ethylphenol	–
CCc1ccccc1C [2-ethyltoluene]	–	EC50 [3]: 62.2 µM
Cc1c[nH]c2ccccc12 [3-methylindole]	five aromatics 3-methylindole, 2-ethyltoluene, indole, acetophenone, and 2-ethylphenol	–
CC1(C)C(=O)[C@@]2(C)CC[C@@H]1C2 [(+)-fenchone]	–	EC50 [3]: 139 µM
CC1(C)C(=O)[C@]2(C)CC[C@H]1C2 [(−)-fenchone]	The seven strong ligands comprised two terpenes (+)-fenchone and (−)-fenchone	–
CC(=O)c1ccccc1 [acetophenone]	five aromatics 3-methylindole, 2-ethyltoluene, indole, acetophenone, and 2-ethylphenol	–
C=CCc1ccc(O)c(OC)c1 [eugenol]	–	two-electrode voltage clamp in Xenopus oocytes, screen at 10^-4 M [4]: except eugenol, which could activate AalbOr11 but could not activate AgOr11
c1ccc2[nH]ccc2c1 [indole]	five aromatics 3-methylindole, 2-ethyltoluene, indole, acetophenone, and 2-ethylphenol	–
COC(=O)c1ccccc1C [methyl-2-methylbenzoate]	–	two-electrode voltage clamp in Xenopus oocytes, screen at 10^-4 M [4]: AalbOr11 was sensitive to human odor, such as indole, 3-methylindole, and methyl-2-methylbenzoate
